Measured values as given in ChEMBL document CHEMBL2046382, “Synthesis, biological evaluation of 5-carbomethoxymethyl-7-hydroxy-2-pentylchromone, 5-carboethoxymethyl-4',7-dihydroxyflavone and their analogues” (Bioorg Med Chem Lett, 2012).
≈ marks a conversion by molar mass, not a printed value. Calls of active or inactive are those of the source. The rule behind the calls is not given here.

Assays:
Candida parapsilosis [1] = test: Antifungal activity against Candida parapsilosis MTCC 1744 by well diffusion method; format: functional; conditions: Lodderomyces parapsilosis
[2] = Antioxidant activity in erythrocytes assessed as inhibition of hemolysis; format: functional, cell-based; conditions: erythrocyte
Candida albicans [3] = test: Antifungal activity against Candida albicans MTCC 3017 by well diffusion method; format: functional
[4] = Antioxidant activity of the compound assessed as inhibition of lipid peroxidation; format: functional
Staphylococcus aureus [5] = test: Antibacterial activity against Staphylococcus aureus MTCC 2940 by modified microtiter broth dilution method; format: functional
Bacillus subtilis [6] = test: Antibacterial activity against Bacillus subtilis MTCC 121 by modified microtiter broth dilution method; format: functional
Micrococcus luteus [7] = test: Antibacterial activity against Micrococcus luteus MTCC 2470 by modified microtiter broth dilution method; format: functional
Candida albicans [8] = test: Antifungal activity against Candida albicans MTCC 183 by well diffusion method; format: functional
Candida albicans [9] = test: Antifungal activity against Candida albicans MTCC 854 by well diffusion method; format: functional
[10] = system: Radical scavenging activity; test: Antioxidant activity assessed as DPPH free radical scavenging activity; format: functional
Escherichia coli [11] = test: Antibacterial activity against Escherichia coli MTCC 739 at 80 ug/ml by modified microtiter broth dilution method; format: functional, organism-based
Candida albicans [12] = test: Antifungal activity against Candida albicans MTCC 3958 by well diffusion method; format: functional
Nakaseomyces glabratus = test: Antifungal activity against Candida glabrata MTCC 3019 by well diffusion method; format: functional
Pseudomonas aeruginosa [13] = test: Antibacterial activity against Pseudomonas aeruginosa MTCC 2453 at 80 ug/ml by modified microtiter broth dilution method; format: functional, organism-based
[14] = Antioxidant activity assessed as superoxide radical scavenging activity; format: functional
Candida albicans [15] = test: Antifungal activity against Candida albicans MTCC 1637 by well diffusion method; format: functional
Pichia kudriavzevii = test: Antifungal activity against Issatchenkia orientalis MTCC 3020 by well diffusion method; format: functional
Candida albicans [16] = test: Antifungal activity against Candida albicans MTCC 7315 by well diffusion method; format: functional
Candida parapsilosis [17] = test: Antifungal activity against Candida parapsilosis MTCC 3018 by well diffusion method; format: functional; conditions: Lodderomyces parapsilosis
Raoultella planticola [18] = test: Antibacterial activity against Klebsiella planticola MTCC 530 by modified microtiter broth dilution method; format: functional
Staphylococcus aureus [19] = test: Antibacterial activity against Staphylococcus aureus MTCC 96 at 80 ug/ml by modified microtiter broth dilution method; format: functional, organism-based
Candida albicans [20] = test: Antifungal activity against Candida albicans MTCC 4748 by well diffusion method; format: functional
Candida albicans [21] = test: Antifungal activity against Candida albicans MTCC 227 by well diffusion method; format: functional
[22] = Chemical stability of the compound in antioxidant reaction; format: physicochemical
Erythrocyte = test: Antioxidant activity in erythrocytes assessed as inhibition of hemolysis after 48 hrs; format: functional, cell-based
Pseudomonas aeruginosa [23] = test: Antibacterial activity against Pseudomonas aeruginosa MTCC 2453 by modified microtiter broth dilution method; format: functional
Raoultella planticola [24] = test: Antibacterial activity against Klebsiella planticola MTCC 530 at 80 ug/ml by modified microtiter broth dilution method; format: functional, organism-based
[25] = Antioxidant activity assessed as superoxide radical scavenging activity after 48 hrs; format: functional
Escherichia coli [26] = test: Antibacterial activity against Escherichia coli MTCC 739 by modified microtiter broth dilution method; format: functional
Micrococcus luteus [27] = test: Antibacterial activity against Micrococcus luteus MTCC 2470 at 80 ug/ml by modified microtiter broth dilution method; format: functional, organism-based
[28] = Antioxidant activity of the compound assessed as inhibition of lipid peroxidation after 48 hrs; format: functional
[29] = system: Radical scavenging activity; test: Antioxidant activity assessed as DPPH free radical scavenging activity after 48 hrs; format: functional
NCI60 = test: Cytotoxicity against human NCI60 cells; format: functional, cell-based
Staphylococcus aureus [30] = test: Antibacterial activity against Staphylococcus aureus MTCC 2940 at 80 ug/ml by modified microtiter broth dilution method; format: functional, organism-based
Bacillus subtilis [31] = test: Antibacterial activity against Bacillus subtilis MTCC 121 at 80 ug/ml by modified microtiter broth dilution method; format: functional, organism-based
Staphylococcus aureus [32] = test: Antibacterial activity against Staphylococcus aureus MTCC 96 by modified microtiter broth dilution method; format: functional

| SMILES | MIC (Staphylococcus aureus [5]) [µg/mL] | MIC (Bacillus subtilis [6]) [µg/mL] | MIC (Micrococcus luteus [7]) [µg/mL] | Activity (Pseudomonas aeruginosa [13]) | MIC (Raoultella planticola [18]) [µg/mL] | Activity (Staphylococcus aureus [19]) | Stability [22] | Activity (Erythrocyte) | MIC (Pseudomonas aeruginosa [23]) [µg/mL] | Activity (Raoultella planticola [24]) | Activity [25] | MIC (Escherichia coli [26]) [µg/mL] | Activity (Micrococcus luteus [27]) | Activity [28] | Activity [29] | Activity (NCI60) | Activity (Staphylococcus aureus [30]) | MIC (Staphylococcus aureus [32]) [µg/mL] | further results |
| --- | --- | --- | --- | --- | --- | --- | --- | --- | --- | --- | --- | --- | --- | --- | --- | --- | --- | --- | --- |
| COC(=O)Cc1cc(O)cc2oc(-c3ccc(Cl)c(F)c3)cc(=O)c12 | 18 (≈ 49.6 µM) | 75 (≈ 207 µM) | 18 (≈ 49.6 µM) | inactive | 37 (≈ 102 µM) | inactive |  |  |  |  |  |  |  |  |  |  |  |  | MIC (Candida parapsilosis [1]): 9 µg/mL (≈ 24.8 µM); EC50 [2]: Not Active; MIC (Candida albicans [3]): inactive; EC50 [4]: Not Active; MIC (Candida albicans [8]): inactive; MIC (Candida albicans [9]): 9 µg/mL (≈ 24.8 µM); EC50 [10]: 61.66 µg/mL (≈ 170 µM); Activity (Escherichia coli [11]): inactive; MIC (Candida albicans [12]): 4 µg/mL (≈ 11 µM); MIC (Nakaseomyces glabratus): inactive; EC50 [14]: 60.92 µg/mL (≈ 168 µM); MIC (Candida albicans [15]): inactive; MIC (Pichia kudriavzevii): inactive; MIC (Candida albicans [16]): 9 µg/mL (≈ 24.8 µM); MIC (Candida parapsilosis [17]): 9 µg/mL (≈ 24.8 µM); MIC (Candida albicans [20]): 4 µg/mL (≈ 11 µM); MIC (Candida albicans [21]): inactive |
| COC(=O)Cc1cc(O)cc2oc(-c3ccc(OC)cc3)cc(=O)c12 |  | 9 (≈ 26.4 µM) |  |  |  | inactive | Unstable | inactive | 37 (≈ 109 µM) | inactive | inactive | 18 (≈ 52.9 µM) | inactive | inactive | inactive | inactive | inactive |  |  |
| CCOC(=O)Cc1cc(O)cc2oc(-c3ccc(O)cc3)cc(=O)c12 |  | 9 (≈ 26.4 µM) | 9 (≈ 26.4 µM) | inactive | 9 (≈ 26.4 µM) | inactive |  |  |  |  |  | 9 (≈ 26.4 µM) |  |  |  |  | inactive |  | EC50 [2]: 151.1 µg/mL (≈ 444 µM); EC50 [4]: 171.54 µg/mL (≈ 504 µM); EC50 [10]: 71.11 µg/mL (≈ 209 µM); EC50 [14]: 77.71 µg/mL (≈ 228 µM) |
| O=c1cc(-c2ccc(O)c(O)c2)oc2cc(O)cc(O)c12 [LUTEOLIN] | 18 (≈ 62.9 µM) |  | 18 (≈ 62.9 µM) | inactive |  |  |  |  |  | inactive |  | 4 (≈ 14 µM) |  |  |  |  |  | 9 (≈ 31.4 µM) | EC50 [2]: 122 µg/mL (≈ 426 µM); EC50 [4]: 134.1 µg/mL (≈ 468 µM); EC50 [10]: 44.18 µg/mL (≈ 154 µM); EC50 [14]: 31.01 µg/mL (≈ 108 µM); Activity (Bacillus subtilis [31]): inactive |
| OC(Cn1cncn1)(Cn1cncn1)c1ccc(F)cc1F [FLUCONAZOLE] |  |  |  |  |  |  |  |  |  |  |  |  |  |  |  |  |  |  | MIC (Candida parapsilosis [1]): 16 µg/mL (≈ 52.2 µM); MIC (Candida albicans [3]): 64 µg/mL (≈ 209 µM); MIC (Candida albicans [8]): 32 µg/mL (≈ 104 µM); MIC (Candida albicans [9]): 32 µg/mL (≈ 104 µM); MIC (Candida albicans [12]): 64 µg/mL (≈ 209 µM); MIC (Nakaseomyces glabratus): 64 µg/mL (≈ 209 µM); MIC (Candida albicans [15]): 32 µg/mL (≈ 104 µM); MIC (Pichia kudriavzevii): 128 µg/mL (≈ 418 µM); MIC (Candida albicans [16]): 32 µg/mL (≈ 104 µM); MIC (Candida parapsilosis [17]): 16 µg/mL (≈ 52.2 µM); MIC (Candida albicans [20]): 32 µg/mL (≈ 104 µM); MIC (Candida albicans [21]): 32 µg/mL (≈ 104 µM) |
| COC(=O)Cc1cc(O)cc2oc(-c3cc(OC)cc(OC)c3)cc(=O)c12 | 18 (≈ 48.6 µM) | 18 (≈ 48.6 µM) | 9 (≈ 24.3 µM) |  | 18 (≈ 48.6 µM) |  | Unstable | inactive | 9 (≈ 24.3 µM) |  | inactive | 4 (≈ 10.8 µM) |  | inactive | inactive | inactive |  | 9 (≈ 24.3 µM) |  |
| COC(=O)Cc1cc(O)cc2oc(-c3ccc(N)cc3)cc(=O)c12 |  | 9 (≈ 27.7 µM) |  | inactive |  | inactive | Unstable | inactive |  | inactive | inactive |  | inactive | inactive | inactive | inactive | inactive |  | Activity (Escherichia coli [11]): inactive |
| COC(=O)Cc1cc(O)cc2oc(-c3ccc(O)c(OC)c3)cc(=O)c12 | 18 (≈ 50.5 µM) | 4 (≈ 11.2 µM) | 18 (≈ 50.5 µM) |  | 9 (≈ 25.3 µM) |  | Unstable | inactive | 9 (≈ 25.3 µM) |  | inactive | 4 (≈ 11.2 µM) |  | inactive | inactive | inactive |  | 9 (≈ 25.3 µM) |  |
| COC(=O)Cc1cc(O)cc2oc(-c3ccc(OC)c(OC)c3)cc(=O)c12 |  | 9 (≈ 24.3 µM) |  | inactive | 18 (≈ 48.6 µM) |  | Unstable | inactive |  |  | inactive |  | inactive | inactive | inactive | inactive | inactive | 37 (≈ 99.9 µM) | Activity (Escherichia coli [11]): inactive |
| COC(=O)Cc1cc(O)cc2oc(-c3ccc(OC)c(O)c3)cc(=O)c12 | 37 (≈ 104 µM) |  |  |  |  | inactive | Unstable | inactive | 9 (≈ 25.3 µM) | inactive | inactive | 18 (≈ 50.5 µM) | inactive | inactive | inactive | inactive |  |  | Activity (Bacillus subtilis [31]): inactive |
| COC(=O)Cc1cc(O)cc2oc(-c3ccc(C)cc3)cc(=O)c12 | 18 (≈ 55.5 µM) | 4 (≈ 12.3 µM) | 18 (≈ 55.5 µM) |  | 18 (≈ 55.5 µM) |  | Unstable | inactive | 9 (≈ 27.7 µM) |  | inactive | 4 (≈ 12.3 µM) |  | inactive | inactive | inactive |  | 9 (≈ 27.7 µM) |  |
